The numbers were not newly measured in patent US20100305045A1, “OMEGA-3 OIL CONTAINING OPHTHALMIC EMULSIONS” (Abbott Medical Optics Inc., priority 2009, published 2010), which cites them from elsewhere.

For one data set the following is noted: HLB value as reported by the manufacturer of the commercial product, or rough average.
For the substance “2,4,7,9-Tetramethyl-5-decyne-4,7-diol ethoxylate”, the HLB was 8.0.

For the substance “2,4,7,9-Tetramethyl-5-decyne-4,7-diol ethoxylate (15 EO/OH)”, the HLB is recorded as 17.0.

On to Polyoxyethylene sorbitan tetraoleate, for which the HLB is on record as 11.4.

With Polyoxyethylene sorbitol hexaoleate, the HLB is on record as 10.2.

Take “Polyoxyethylene(2) cetyl ether [Brij ® 52]”: the HLB was 5.3.

Consider “Polyoxyethylene(2) isooctylphenyl ether [Igepal ® CA-210]”, for which the HLB is given as 4.3.

For “Polyoxyethylene(2) nonylphenyl ether [Igepal CO-210]”, the HLB is given as 4.6.

Take “Polyoxyethylene(2) oleyl ether [Brij ® 92/93]”: the HLB is recorded as 4.9.

As for “Polyoxyethylene(2) stearyl ether [Brij ® 72]”, the HLB is on record as 4.9.

“Polyoxyethylene(4) lauryl ether [Brij ® 30]”: the HLB is on record as 9.7.

As for “Polyoxyethylene(5) isooctylphenyl ether [Igepal ® CA-520]”, the HLB is recorded as 10.0.

Take “Polyoxyethylene(5) nonylphenyl ether [Igepal ® CO-520]”: the HLB was 10.0.

For “Polyoxyethylene(12) isooctylphenyl ether [Igepal ® CA-720]”, the HLB is listed as 14.6.

Take “Polyoxyethylene(12) nonylphenyl ether [Igepal ® CO-720]”: the HLB is on record as 14.2.

Regarding Polyoxyethylene(12) tridecyl ether, the HLB is reported as 14.5.

On to Polyoxyethylene(18) tridecyl ether, for which the HLB is 14.5.

As for “Polyoxyethylene(40) isooctylphenyl ether [Triton ® X-405]”, the HLB was 17.9.

Consider “Polyoxyethylene(40) nonylphenyl ether [Igepal ® CO-890]”, for which the HLB is reported as 17.8.

Take “Polyoxyethylene(100) nonylphenyl ether [Igepal ® CO-990]”: the HLB was 19.0.

Take “Polyoxyethylene(100) stearyl ether [Brij ® 700]”: the HLB is 18.8.

For “Polyoxyethylene(150) dinonylphenyl ether [Igepal ® DM-970]”, the HLB was 19.0.

In the case of Sorbitan monooleate, the HLB is 4.3.

Take Sorbitan monopalmitate: the HLB is 6.7.

With Sorbitan monostearate, the HLB is given as 4.7.

The data set is the same for the next values; noted with them: HLB value as reported by the manufacturer of the commercial product, or rough average; listed as Brij 72.
As for “Polyoxyethylene(2) stearyl ether [Brij ® 72]”, the HLB entry is reported as “approximately 4.9”.
